One series deals with IFNGR1 promoter. Briefly: ChIP analysis of EZH2 and H3K27me3 enrichments at IFNGR1 in DU145 cells. Format: cell-based, human. To be noted: GSK126 (5 μM), 3 days, compared with DZNep. The method, then: ChIP assays were performed as described previously. […] The immunoprecipitated DNA was quantified by quantitative real-time PCR using KAPA SyBr Fast qPCR kit (KAPA biosystems) with the specific ChIP primers as listed in the Table 4. Quantification of binding to the promoter was defined as the percentage of the whole cell lysate input DNA. The fold enrichment was derived by normalizing the specific antibody enriched against the IgG-enriched chromatin. CNR1 serves a positive control and Actin is a negative control. Significance of target genes was assessed relative to Actin level.

The subject of the next series is solid tumor cells. The settings on record: very recent report; cited from earlier work.
In series [1] the test system is IFNGR1 expression and IFN-γ-STAT1 signaling. Briefly: qRT-PCR and western blot of IFNGR1 expression and IFN-γ signaling in DU145 cells. Format: cell-based, human. The method, then:
All cells were maintained at 37° C. with 5% CO2. Cells were grown until they were 80% confluent before they are treated the respective drugs. For drug treatment, DZNep and GSK126 were purchased from Pharmaron Inc. (Beijing, China), GSK343 was kindly provided by Chemical Probes of University of Toronto, 5′Aza, TSA and human recombinant IFN-γ was purchased from Sigma. For rescue experiment using IFNGR1 blocking antibody, the neutralizing antibody that specifically targets IFNGR1 (anti-CD119, GIR-208, BD Pharmingen) was added to the medium 4 hour prior to the addition of DZNep or/and IFN-γ. Total RNA was isolated by using Trizol (Invitrogen) and purified with the RNeasy Mini Kit (Qiagen). The microarray hybridization was performed using the Illumina Gene Expression Sentrix BeadChip HumanRef-8_V3, and data analysis was performed by GeneSpring software from Agilent Technologies as described previously. The analyzed gene sets by GeneSpring were next subjected to Ingenuity Pathway Analysis (IPA) for gene ontology (GO) analysis. Reverse transcription and quantitative PCR assays were performed using High Capacity cDNA Archive kit and KAPA SyBr Fast qPCR kit (KAPA biosystems). For quantification of mRNA levels, 18S level was used as an internal control. All reactions were analyzed in an Applied Biosystems PRISM 7500 Fast Real-Time PCR system in 96-well plate format. Western Blotting was performed as described previously. Briefly, Cells were scraped, collected, and lysed in RIPA buffer. To release histones from chromatin, cell lysates were further sonicated for 15 sec using a XL2000 Microson Ultrasonic Processor (Misonix). Equal amounts of protein (30 μg) were separated on SDS-polyacrylamide gels and transferred to PVDF membranes. The blots were probed with antibodies against EED (07-368), SUZ12 (07-379), trimethylated H3-K27 (07-449), Acetyl-Histone H3 (06-599), which were purchased from Upstate Biotechnology. IFNGR1 (GIR-94) and anti-IFI16 (1G7) were purchased from Santa Cruz. EZH2 phospho S21 (00388) was purchased from Bethyl Laboratories. EZH2 (AC22), P110α PI3K, p-AKT (T308), p-AKT (S473), pSTAT1Y701, total STAT1, Histone H3 (3H1), Beclin-1 and cleaved PARP were purchased from Cell Signaling. Myc and Actin were purchased from Roche Applied Science and Sigma-Aldrich, respectively.

Series [2] relates to DU145 cells. In words: FACS sub-G1 DNA analysis (apoptosis) in DU145 cells. Format: cell-based, human. To be noted: for apoptotic effect (sub-G1) / apoptosis (sub-G1) with other epigenetic compounds: in combination with IFN-γ; for apoptotic effect (sub-G1): treated for either 3 days or 10 days; for apoptosis (sub-G1) with other epigenetic compounds: compared with DZNep. The method, then:
For the assessment of cell death, cells were harvested in 70% ethanol. Fixed cells were stained with Propidium Iodide (P.I) (50 μg/mL). The stained cells were analyzed for DNA content by FACS in a FACSCalibur (Becton Dickinson Instrument). % of cell death was defined as the sub-G1 population quantified using the CellQuest software (Becton Dickinson). The percentage of dead cells or sub-G1 cells was calculated by comparing the results of each experiment to the results from DMSO-treated cells. Each assay was repeated a minimum of three times, with results reported as means+s.e.m.

The target in a further series is T1, EZH2/PRC2 and H3K27me3 (Homo sapiens, UniProt Q15910).
T1 construct: endogenous in cells; host or cells: DU145 (named by the earlier reading of the assay)
In words: Western blot of PRC2 proteins and H3K27me3 in DU145 cells. Format: cell-based. The method, then:
Western Blotting was performed as described previously. Briefly, Cells were scraped, collected, and lysed in RIPA buffer. To release histones from chromatin, cell lysates were further sonicated for 15 sec using a XL2000 Microson Ultrasonic Processor (Misonix). Equal amounts of protein (30 μg) were separated on SDS-polyacrylamide gels and transferred to PVDF membranes. The blots were probed with antibodies against EED (07-368), SUZ12 (07-379), trimethylated H3-K27 (07-449), Acetyl-Histone H3 (06-599), which were purchased from Upstate Biotechnology. IFNGR1 (GIR-94) and anti-IFI16 (1G7) were purchased from Santa Cruz. EZH2 phospho S21 (00388) was purchased from Bethyl Laboratories. EZH2 (AC22), P110α PI3K, p-AKT (T308), p-AKT (S473), pSTAT1Y701, total STAT1, Histone H3 (3H1), Beclin-1 and cleaved PARP were purchased from Cell Signaling. Myc and Actin were purchased from Roche Applied Science and Sigma-Aldrich, respectively.

Series [3] deals with DU145 cells. In words: Cell proliferation assay (CellTiter-Glo) in DU145 cells. The format is cell-based, human. To be noted: siRNA knockdown combined with IFN-γ treatment. How it is done: (§1) The optimal cell seeding was determined empirically for all cell lines by examining the growth of a wide range of seeding densities in a 96-well format to identify conditions that permitted proliferation for 6 days. Cells were then plated at the optimal seeding density 24 h before siRNA or drug treatment in triplicate. Plates were incubated for 6 days at 37° C. in 5% CO2. Cells were then lysed with CellTiter-Glo (CTG) (Promega) and chemiluminescent signal was detected with a microplate reader (TECAN). In addition, an untreated plate of cells was harvested at the time of drug or siRNA addition (T0) to quantify the starting number of cells. CTG values obtained after the 6 day treatment were expressed as percentages of the T0 value and plotted against time of treatment. Cells received 1-5 μM of DZNep, 25 ng/mL of IFN-γ and 0.1-2.5 μM of GSK343 unless stated otherwise for 72-96 h.

The subject of the next series is LNCaP cells. In words: Cell proliferation assay (CellTiter-Glo) in LNCaP cells. Format: cell-based, human. The settings on record: siRNA knockdown combined with IFN-γ treatment. The method, then:
as §1
(ATP-based viability assays read luminescence as a measure of living cells.)

The next series concerns DU145 xenograft tumor. In words: DU145 xenograft tumor growth in male athymic nude mice. Format: in vivo. To be noted: IFN-γ 1×10^7 IU/kg i.p. daily, DZNep 1 mg/kg s.c. every alternating day, 38 days. How it is done:
For in vivo evaluation of DZNep and IFN-γ treatment, the experiments were conducted in compliance with animal protocol approved by the ASTAR-Biopolis Institutional Animal Care and Use Committee (IACUC) of Singapore. DU145 cells were subcutaneously injected into 6-8 week male nude mice at 5×10^6 cells, followed by treatment with vehicle, IFN-γ (1×10^7 IU/kg) alone, DZNep (1 mg/kg) alone or combined DZNep (1 mg/kg) with IFN-γ (1×10^7IU/kg). IFN-γ was administered by intraperitoneal injection daily and DZNep by subcutaneous injection on every alternating day over a duration of 38 days after average tumor size reached around 150 mm^3. Tumors were measured by vernier calliper at least twice per week and tumors volume was calculated with formula: V=W*W*L/2. Each xenograft treatment arm comprised of 5-8 mice. Differences among groups and treatments were determined by ANOVA followed by t tests. (***p<0.001, n.s=not significant) Error bars represent means±s.e.m

T1 sequence (Q15910 whole entry): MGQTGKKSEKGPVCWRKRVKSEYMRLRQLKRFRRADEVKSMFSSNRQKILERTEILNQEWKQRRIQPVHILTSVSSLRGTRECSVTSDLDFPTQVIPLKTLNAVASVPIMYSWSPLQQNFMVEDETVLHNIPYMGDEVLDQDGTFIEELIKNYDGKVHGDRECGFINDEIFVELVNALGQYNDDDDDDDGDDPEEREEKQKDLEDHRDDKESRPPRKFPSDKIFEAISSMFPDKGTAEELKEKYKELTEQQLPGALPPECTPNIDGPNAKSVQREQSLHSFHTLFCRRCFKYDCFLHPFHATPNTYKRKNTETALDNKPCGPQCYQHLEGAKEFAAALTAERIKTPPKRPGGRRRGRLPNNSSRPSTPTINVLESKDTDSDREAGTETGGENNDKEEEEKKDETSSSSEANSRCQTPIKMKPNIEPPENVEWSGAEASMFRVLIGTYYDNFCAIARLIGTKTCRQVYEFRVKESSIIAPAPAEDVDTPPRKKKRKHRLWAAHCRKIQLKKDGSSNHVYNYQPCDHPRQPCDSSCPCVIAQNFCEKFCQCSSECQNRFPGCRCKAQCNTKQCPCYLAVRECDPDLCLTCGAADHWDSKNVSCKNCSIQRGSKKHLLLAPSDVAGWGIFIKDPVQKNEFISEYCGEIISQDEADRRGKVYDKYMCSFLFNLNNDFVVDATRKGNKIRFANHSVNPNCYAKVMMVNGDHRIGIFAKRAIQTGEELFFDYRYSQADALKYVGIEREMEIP
T1 sequence (O75530 whole entry partner): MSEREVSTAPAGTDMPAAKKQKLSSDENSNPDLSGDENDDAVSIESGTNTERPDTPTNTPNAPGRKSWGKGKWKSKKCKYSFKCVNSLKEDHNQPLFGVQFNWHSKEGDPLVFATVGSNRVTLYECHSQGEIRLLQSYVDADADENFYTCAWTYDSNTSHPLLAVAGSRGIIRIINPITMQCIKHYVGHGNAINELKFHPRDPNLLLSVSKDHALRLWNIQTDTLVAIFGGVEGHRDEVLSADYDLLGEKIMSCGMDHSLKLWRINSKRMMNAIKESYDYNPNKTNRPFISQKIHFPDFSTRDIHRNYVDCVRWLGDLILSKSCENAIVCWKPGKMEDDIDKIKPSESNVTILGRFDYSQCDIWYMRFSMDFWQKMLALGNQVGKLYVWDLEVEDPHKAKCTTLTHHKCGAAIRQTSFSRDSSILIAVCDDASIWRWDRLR
T1 sequence (Q15022 whole entry partner): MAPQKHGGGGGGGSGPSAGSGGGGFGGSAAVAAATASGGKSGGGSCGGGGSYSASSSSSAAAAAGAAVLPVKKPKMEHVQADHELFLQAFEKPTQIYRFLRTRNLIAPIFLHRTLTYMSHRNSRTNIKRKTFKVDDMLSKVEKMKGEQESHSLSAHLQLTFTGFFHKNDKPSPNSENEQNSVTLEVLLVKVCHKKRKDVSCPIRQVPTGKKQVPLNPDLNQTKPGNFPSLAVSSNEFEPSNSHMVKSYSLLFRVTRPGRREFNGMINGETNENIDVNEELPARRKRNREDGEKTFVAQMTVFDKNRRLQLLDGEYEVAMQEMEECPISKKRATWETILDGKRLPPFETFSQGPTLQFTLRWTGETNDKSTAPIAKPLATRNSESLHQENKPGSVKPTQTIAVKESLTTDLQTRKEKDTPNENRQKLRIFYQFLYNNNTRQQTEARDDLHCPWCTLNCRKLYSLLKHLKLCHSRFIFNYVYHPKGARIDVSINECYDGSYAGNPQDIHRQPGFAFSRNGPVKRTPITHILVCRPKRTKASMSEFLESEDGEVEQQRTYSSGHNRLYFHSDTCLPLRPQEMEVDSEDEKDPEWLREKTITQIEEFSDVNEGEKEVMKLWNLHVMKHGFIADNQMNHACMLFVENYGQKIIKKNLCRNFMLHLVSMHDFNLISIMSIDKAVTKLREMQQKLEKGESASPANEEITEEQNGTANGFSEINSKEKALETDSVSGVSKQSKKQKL

In the case of `CC[C@H](C)n1cc(C)c2c(C(=O)NCc3c(C)cc(C)[nH]c3=O)cc(-c3ccc(N4CCNCC4)nc3)cc21` [GSK126, N-[(4,6-dimethyl-2-oxo-1,2-dihydro-3-pyridinyl)methyl]-3-methyl-1-((1S)-1-methylpropyl)-6-[6-(1-piperazinyl)-3-pyridinyl]-1H-indole-4-carboxamide], the “H3K27me3 enrichment at the IFNGR1 gene promoter” value in the series on IFNGR1 promoter is “more efficiently depleted H3K27me3”. Besides, the “ability to induce the loss of cell viability” value in the series with solid tumor cells is recorded as “unable to do so”. In addition, the IFNGR1 expression result in series [1] (GSK126 up to 10 μM for 10 days) is given as “modest induction of IFNGR1”. The “apoptotic effect (sub-G1)” value in the series on DU145 cells [2] is “failed to see an apoptotic effect”.
Regarding `CCCc1cc(C)[nH]c(=O)c1CNC(=O)c1cc(-c2ccnc(N3CCN(C)CC3)c2)cc2c1cnn2C(C)C` [GSK343, N-[(6-methyl-2-oxo-4-propyl-1,2-dihydropyridin-3-yl)methyl]-6-[2-(4-methylpiperazin-1-yl)pyridin-4-yl]-1-(propan-2-yl)-1H-indazole-4-carboxamide], in series [1] (GSK343 up to 2.5 μM for 3 days), the IFNGR1 expression entry was “did not show an induction of IFNGR1”. In the series with DU145 cells [2], the “apoptotic effect (sub-G1)” value is reported as “failed to see an apoptotic effect”. Further, the “depletion of H3K27me3” value on EZH2/PRC2 and H3K27me3 (GSK343 at as low as 0.1 μM, 3 days) was “efficient depletion of H3K27me3”.
With `O=C(CCCCCCC(=O)Nc1ccccc1)NO` [SAHA], the “apoptosis (sub-G1) with other epigenetic compounds” value in the series on DU145 cells [2] is reported as “did not give rise to such a response”.
On the same count and under the same terms, the value for `CC(/C=C/C(=O)NO)=C\[C@@H](C)C(=O)c1ccc(N(C)C)cc1` [TSA] was “did not give rise to such a response”.
As for “MYC knockdown: MYC siRNA: 5′-UCCUGAGACAGAUCAGCAACAACCG-3′ (SEQ ID NO:2) (other strand not given here)”, the “apoptosis (sub-G1) after knockdown” value in the series with DU145 cells [2] (siRNA knockdown in combination with IFN-γ) is “apoptosis induction”. For the same molecule, the “cell growth after knockdown” value in the series on DU145 cells [3] is on record as “remarkable synergy in cell growth regression”; with LNCaP cells, “no such an effect was seen”. Further, the “EZH2 expression after knockdown” value with EZH2/PRC2 and H3K27me3 is “decreased EZH2 expression”.

B1: IFN-γ: human recombinant IFN-γ purchased from Sigma; enhancer of interferon-gamma receptor activity (protein)
chain: QDPYVKEAENLKKYFNAGHSDVADNGTLFLGILKNWKEESDRKIMQSQIVSFYFKLFKNFKDDQSIQKSVETIKEDMNVKFFNSNKKKRDDFEKLTNYSVTDLNVQRKAIHELIQVMAELSPAAKTGKRKRSQMLFRGRRASQ
Regarding B1, the xenograft tumor growth entry in the series on DU145 xenograft tumor was “slowed down the tumor growth”.
